# ChEMBL document CHEMBL1201862, “PubChem BioAssay data set” (2004)
#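 Interpolation was linear, between the two tested concentrations surrounding the appropriate level; five concentrations were tested over 48 hours in 96-well plates. GI50 marks 50% less growth.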 Active and inactive are the calls of the source. Cut-off read from the data, not from the text of the source: active = GI50 up to about 1.1 µM and inactive = higher.
# Legend:
# Test in all cases: NCI anticancer screen, dose series, 48 h
# MDA-MB-231 = tested on: MDA-MB-231
# HL-60 = tested on: HL-60
# HCT-116 = tested on: HCT-116
# SN12C = tested on: SN12C
# HOP-62 = tested on: HOP-62
# Hs-578T = tested on: Hs-578T
# HT-29 = tested on: HT-29
# SF-268 = tested on: SF-268
# NCI/ADR-RES = tested on: NCI/ADR-RES
# A498 = tested on: A498
# BT-549 = tested on: BT-549
# MDA-MB-435 = tested on: MDA-MB-435
# PC-3 = tested on: PC-3
# SF-539 = tested on: SF-539
# HCC 2998 = tested on: HCC 2998
# K562 = tested on: K562
SMILES,GI50 (MDA-MB-231),GI50 (HL-60),GI50 (HCT-116),GI50 (SN12C),GI50 (HOP-62),GI50 (Hs-578T),GI50 (HT-29),GI50 (SF-268),GI50 (NCI/ADR-RES),GI50 (A498),GI50 (BT-549),GI50 (MDA-MB-435),GI50 (PC-3),GI50 (SF-539),GI50 (HCC 2998),GI50 (K562)
COc1ccc(CCn2cnc3ccccc32)cc1,> 100 µM (inactive),> 100 µM (inactive),> 100 µM (inactive),> 100 µM (inactive),> 100 µM (inactive),> 100 µM (inactive),> 100 µM (inactive),> 100 µM (inactive),> 100 µM (inactive),> 100 µM (inactive),> 100 µM (inactive),> 100 µM (inactive),> 100 µM (inactive),> 100 µM (inactive),> 100 µM (inactive),> 100 µM (inactive)
COc1ccc(CC2Cc3ccccc3CCN2)cc1OC (stereo not drawn),44.5 µM (inactive),13.2 µM (inactive),20.9 µM (inactive),> 50 µM (inactive),40.5 µM (inactive),23.8 µM (inactive),13.8 µM (inactive),> 50 µM (inactive),> 50 µM (inactive),> 50 µM (inactive),> 50 µM (inactive),> 50 µM (inactive),> 50 µM (inactive),37.8 µM (inactive),> 50 µM (inactive),20 µM (inactive)
COC(=O)Nc1nc2ccc(S(=O)(=O)SC)cc2[nH]1,11.6 µM (inactive),2.38 µM (inactive),4.68 µM (inactive),10.9 µM (inactive),21.1 µM (inactive),20.5 µM (inactive),3.28 µM (inactive),16.5 µM (inactive),3.61 µM (inactive),16.3 µM (inactive),10.1 µM (inactive),2.69 µM (inactive),4.42 µM (inactive),4 µM (inactive),10.4 µM (inactive),4.86 µM (inactive)
CC(C)(C)OC(=O)N1CCCC1C(=O)NC(c1ccccc1)c1ccccc1 (stereo not drawn),> 100 µM (inactive),> 100 µM (inactive),> 100 µM (inactive),> 100 µM (inactive),> 100 µM (inactive),> 100 µM (inactive),> 100 µM (inactive),> 100 µM (inactive),> 100 µM (inactive),> 100 µM (inactive),> 100 µM (inactive),> 100 µM (inactive),> 100 µM (inactive),> 100 µM (inactive),> 100 µM (inactive),> 100 µM (inactive)
C=C(CC[C@@H](C)[C@H]1CC[C@@]2(C)C3=C(CC[C@]12C)[C@@]1(C)CC[C@H](O)[C@@H](C)C1CC3)C(C)C (stereo partly drawn),1.5 µM (inactive),0.361 µM (active),1.31 µM (inactive),1.44 µM (inactive),0.879 µM (active),1.6 µM (inactive),0.48 µM (active),–,1.4 µM (inactive),1.41 µM (inactive),1.48 µM (inactive),1.32 µM (inactive),1.07 µM (active),1.47 µM (inactive),1.53 µM (inactive),0.273 µM (active)
CO/C=C(/C(=O)OC)[C@@H]1C[C@@H]1c1ccc2ccccc2c1,26.3 µM (inactive),18.3 µM (inactive),18.1 µM (inactive),32.7 µM (inactive),45.4 µM (inactive),31.8 µM (inactive),19.1 µM (inactive),24.9 µM (inactive),26.4 µM (inactive),39.3 µM (inactive),21.8 µM (inactive),14.7 µM (inactive),27.7 µM (inactive),19.5 µM (inactive),20.4 µM (inactive),23 µM (inactive)
COC(=O)[C@@H](Nc1ccccc1)[C@@]1(C(=O)OC)SC12c1ccccc1-c1ccccc12,> 100 µM (inactive),> 100 µM (inactive),12.8 µM (inactive),44.6 µM (inactive),> 100 µM (inactive),> 100 µM (inactive),34.3 µM (inactive),> 100 µM (inactive),> 100 µM (inactive),> 100 µM (inactive),75.5 µM (inactive),54.8 µM (inactive),35 µM (inactive),45.8 µM (inactive),> 100 µM (inactive),56.4 µM (inactive)
COC(=O)C1(C)OC(C)=NC1(C(=O)OC)C(=O)OC (stereo not drawn),> 100 µM (inactive),2.18 µM (inactive),> 100 µM (inactive),> 100 µM (inactive),> 100 µM (inactive),> 100 µM (inactive),> 100 µM (inactive),> 100 µM (inactive),> 100 µM (inactive),> 100 µM (inactive),> 31.6 µM (inactive),> 100 µM (inactive),> 100 µM (inactive),> 100 µM (inactive),> 100 µM (inactive),> 100 µM (inactive)
COCCOCCOCCOc1ccc(C(C#N)N(CCc2ccccc2)C(=O)c2cc(C(=O)N(CCc3ccccc3)C(C#N)c3ccc(OCCOCCOCCOC)cc3)cc(C(=O)N(CCc3ccccc3)C(C#N)c3ccc(OCCOCCOCCOC)cc3)c2)cc1 (stereo not drawn),> 100 µM (inactive),> 100 µM (inactive),> 100 µM (inactive),> 100 µM (inactive),> 100 µM (inactive),54.3 µM (inactive),> 100 µM (inactive),> 100 µM (inactive),> 100 µM (inactive),> 100 µM (inactive),> 100 µM (inactive),> 100 µM (inactive),> 100 µM (inactive),> 100 µM (inactive),> 100 µM (inactive),> 100 µM (inactive)
